Among the data in US8143296B2, “Thiazole-based compound and inhibitor of T-type calcium channel containing the same” (Korea Institute of Science and Technology, priority 2006, dated 2012) are IC50 values, retold here.

Molecules are shown by their SMILES.

In the test the target is T1, α1G T-type calcium channel (Homo sapiens, UniProt O43497).
T1 construct: host or cells: HEK293
Put plainly: T-type calcium channel activity in HEK293 cells by electrophysiological whole cell patch clamp method. The format is cell-based. The settings on record: HEK293 cells expressing α1G. How it is done:
The selected compounds were used in a second assay for T-type calcium channel inhibiting activity using electrophysiological whole cell patch clamp method, wherein mammal HEK293 cell lines (originated from human kidney carcinoma cells) which specifically expresses α1G of T-type calcium channel was used for the second assay. […] 10% Fetal bovine serum (FBS) and 1% penicillin/streptomycin (v/v) were added to Dulbecco's modified Eagle's medium (DMEM), to be used as a media solution. The cells were cultured in incubator under the wet condition of 95% air/5% CO2 and temperature of 36.5° C. The media solution was refreshed every 3 or 4 days, and the cells were sub-cultured every week. Only the cells which express α1G T-type calcium channel were cultured using G-418 (0.5 mg/ml) solution. The recording to the cells used in the T-type calcium channel activity analysis was conducted at 2-7 days after the cells were culturing on a cover slip coated with poly-L-lysine (0.5 mg/ml) when conducting every sub-culture. For analysis at a single cell level, the T-type calcium channel current was measured by an electrophysiological whole cell patch clamp method using EPC-9 amplifier (HEKA, German). […] Thereafter, the cell membrane potential was fixed to −100 mV, and then the inward current due to the T-type calcium channel activity when […] to −30 mV (50 ms duration) was measured every 10 seconds. […]
In general terms: Patch clamp records ionic current or voltage across a cell membrane.

T1 sequence (O43497 whole entry): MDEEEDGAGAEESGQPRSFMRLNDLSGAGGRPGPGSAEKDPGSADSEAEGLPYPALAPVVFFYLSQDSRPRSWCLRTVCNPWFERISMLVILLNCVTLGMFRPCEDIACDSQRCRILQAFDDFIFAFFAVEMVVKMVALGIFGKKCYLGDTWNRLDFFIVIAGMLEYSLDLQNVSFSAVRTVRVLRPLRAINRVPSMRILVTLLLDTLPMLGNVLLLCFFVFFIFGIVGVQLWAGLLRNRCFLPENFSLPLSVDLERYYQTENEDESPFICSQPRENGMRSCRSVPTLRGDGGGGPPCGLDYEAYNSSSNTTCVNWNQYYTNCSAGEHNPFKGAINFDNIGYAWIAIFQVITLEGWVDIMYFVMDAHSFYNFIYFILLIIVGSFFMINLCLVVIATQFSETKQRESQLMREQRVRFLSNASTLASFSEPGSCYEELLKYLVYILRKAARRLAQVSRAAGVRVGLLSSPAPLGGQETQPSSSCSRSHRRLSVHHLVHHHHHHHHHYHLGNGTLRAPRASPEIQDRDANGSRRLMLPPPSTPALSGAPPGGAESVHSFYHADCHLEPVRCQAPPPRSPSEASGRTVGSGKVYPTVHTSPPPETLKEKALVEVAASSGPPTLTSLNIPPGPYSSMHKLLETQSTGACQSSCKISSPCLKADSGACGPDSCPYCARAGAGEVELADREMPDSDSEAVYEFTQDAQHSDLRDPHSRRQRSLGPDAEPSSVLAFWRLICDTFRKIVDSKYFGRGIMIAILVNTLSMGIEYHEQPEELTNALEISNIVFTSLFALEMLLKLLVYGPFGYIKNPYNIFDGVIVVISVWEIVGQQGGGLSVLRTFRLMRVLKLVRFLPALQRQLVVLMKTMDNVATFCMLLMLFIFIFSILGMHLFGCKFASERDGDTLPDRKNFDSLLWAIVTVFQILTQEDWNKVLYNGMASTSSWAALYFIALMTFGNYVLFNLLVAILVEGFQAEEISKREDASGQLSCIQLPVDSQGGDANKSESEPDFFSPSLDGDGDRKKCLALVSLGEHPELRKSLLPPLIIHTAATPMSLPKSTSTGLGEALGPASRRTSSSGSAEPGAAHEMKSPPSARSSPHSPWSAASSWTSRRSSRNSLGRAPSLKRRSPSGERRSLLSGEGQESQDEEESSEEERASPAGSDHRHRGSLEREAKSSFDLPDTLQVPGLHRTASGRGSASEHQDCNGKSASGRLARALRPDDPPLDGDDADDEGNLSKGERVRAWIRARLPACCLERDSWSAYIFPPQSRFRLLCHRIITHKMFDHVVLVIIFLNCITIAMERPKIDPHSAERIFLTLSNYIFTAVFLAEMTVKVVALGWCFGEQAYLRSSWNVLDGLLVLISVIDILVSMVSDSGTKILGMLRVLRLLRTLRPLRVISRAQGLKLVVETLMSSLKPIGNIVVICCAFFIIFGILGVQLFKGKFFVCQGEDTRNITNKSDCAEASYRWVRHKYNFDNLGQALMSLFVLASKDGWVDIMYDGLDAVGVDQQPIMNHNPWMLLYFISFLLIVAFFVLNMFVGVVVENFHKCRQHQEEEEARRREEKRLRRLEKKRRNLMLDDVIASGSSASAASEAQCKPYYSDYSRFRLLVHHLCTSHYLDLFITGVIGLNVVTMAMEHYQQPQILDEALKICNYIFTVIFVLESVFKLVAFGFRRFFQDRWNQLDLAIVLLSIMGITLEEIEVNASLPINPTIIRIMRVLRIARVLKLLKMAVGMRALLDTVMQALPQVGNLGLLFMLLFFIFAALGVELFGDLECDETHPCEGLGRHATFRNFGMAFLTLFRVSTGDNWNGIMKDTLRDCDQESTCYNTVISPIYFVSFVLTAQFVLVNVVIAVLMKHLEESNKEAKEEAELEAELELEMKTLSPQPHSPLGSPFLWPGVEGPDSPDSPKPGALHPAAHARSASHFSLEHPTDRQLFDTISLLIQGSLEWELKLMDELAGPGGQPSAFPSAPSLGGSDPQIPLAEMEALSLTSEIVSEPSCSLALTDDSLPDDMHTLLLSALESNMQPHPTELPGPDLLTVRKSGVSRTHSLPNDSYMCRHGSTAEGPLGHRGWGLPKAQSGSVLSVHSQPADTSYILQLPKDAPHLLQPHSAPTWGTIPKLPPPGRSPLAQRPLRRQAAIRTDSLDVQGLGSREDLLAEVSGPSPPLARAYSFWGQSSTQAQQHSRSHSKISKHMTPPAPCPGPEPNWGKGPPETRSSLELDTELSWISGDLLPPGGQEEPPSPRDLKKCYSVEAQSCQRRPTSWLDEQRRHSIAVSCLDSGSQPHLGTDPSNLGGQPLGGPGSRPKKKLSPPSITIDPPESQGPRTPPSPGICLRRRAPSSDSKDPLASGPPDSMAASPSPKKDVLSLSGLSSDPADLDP

By IC50 is commonly meant the concentration needed to halve the response being measured. For `NC(N)=Nc1nc(CC(=O)Nc2cc(Cl)cc(Cl)c2)cs1`, the 50% inhibitory concentration (IC50) is 310 ± 220 nM.

For `NC(N)=Nc1nc(CC(=O)Nc2cc(C(F)(F)F)cc(C(F)(F)F)c2)cs1` [drawing 11], the IC50 was determined as 780 ± 80 nM.
